The results in this text go back to US20260306644A1, “ANTIBODY RECRUITING MOLECULES FOR THE TREATMENT OF CORONAVIRUS DISEASE-19” (priority 2023, published 2026).

For the test, the target named is T1, SARS-CoV-2 Spike A (wild-type) (Severe acute respiratory syndrome coronavirus 2, UniProt P0DTC2).
T1 construct: purchased Meso Scale Diagnostics, LLC V-PLEX SARS-CoV-2 Panel 13 (ACE2) Kit / Panel 23 (ACE2) Kit
The test can be described thus: MSD ACE2 competition assay (inhibition of Spike binding with ACE2, ECL), A (wild-type).

Where [1] appears, read: IC50 Wild Type, Wild Type Spike.

Like-named read-outs stand apart in the source and are kept apart here. Positions of bridges follow the written chain, without caps; N, C: chain ends. Non-standard residues stand in square brackets, D forms with d. Residues, ends and D or L forms follow the SMILES beside them. ξ: configuration not given here. ξIle = CC[C@H](C)C(N)C(=O)O

By IC50 is commonly meant the concentration that inhibits the measured activity by half. Under setting [1], `CC[C@H](C)[C@H](NC(=O)[C@H](CC(C)C)NC(=O)[C@H](CC(=O)O)NC(=O)[C@H](CO)NC(=O)[C@@H](NC(=O)[C@H](CCCNC(=N)N)NC(=O)[C@H](CCSC)NC(=O)[C@H](CO)NC(=O)[C@H](C)NC(=O)[C@H](CCC(=O)O)NC(=O)[C@H](C)NC(=O)[C@H](Cc1c[nH]cn1)NC(=O)CNC(=O)[C@H](CC(C)C)NC(=O)[C@H](CCC(=O)O)NC(=O)[C@H](CC(=O)O)NC(=O)[C@H](CC(C)C)NC(=O)[C@H](CC(C)C)NC(=O)[C@H](CCCNC(=N)N)NC(=O)[C@H](CCSC)NC(=O)[C@@H](NC(=O)[C@H](CCC(=O)O)NC(=O)[C@H](Cc1ccc(O)cc1)NC(=O)[C@@H](NC(=O)[C@H](CCCCN)NC(=O)[C@H](CCC(N)=O)NC(=O)[C@H](CC(C)C)NC(=O)[C@@H](NC(=O)[C@H](Cc1c[nH]c2ccccc12)NC(=O)[C@H](CCC(=O)O)NC(=O)[C@H](CCCCN)NC(=O)[C@@H](N)CC(=O)O)[C@@H](C)CC)[C@@H](C)CC)[C@@H](C)CC)C(C)C)C(=O)N[C@@H](Cc1ccc(O)cc1)C(=O)N[C@@H](CCC(=O)O)C(=O)N[C@@H](Cc1ccccc1)C(=O)N[C@@H](CCSC)C(=O)N[C@@H](CCCCN)C(=O)N[C@@H](CCCCN)C(=O)NCC(=O)O` [Compound 102] registered an IC50 of 5.96 nM.
`CC[C@H](C)[C@H](NC(=O)[C@H](CC(C)C)NC(=O)[C@H](CC(=O)O)NC(=O)[C@H](CO)NC(=O)[C@@H](NC(=O)[C@H](CCCNC(=N)N)NC(=O)[C@H](CCSC)NC(=O)[C@H](CO)NC(=O)[C@H](C)NC(=O)[C@H](CCC(=O)O)NC(=O)[C@H](C)NC(=O)[C@H](Cc1c[nH]cn1)NC(=O)CNC(=O)[C@H](CC(C)C)NC(=O)[C@H](CCC(=O)O)NC(=O)[C@H](CC(=O)O)NC(=O)[C@H](CC(C)C)NC(=O)[C@H](CC(C)C)NC(=O)[C@H](CCCNC(=N)N)NC(=O)[C@H](CCSC)NC(=O)[C@@H](NC(=O)[C@H](CCC(=O)O)NC(=O)[C@H](Cc1ccc(O)cc1)NC(=O)[C@@H](NC(=O)[C@H](CCCCN)NC(=O)[C@H](CCC(N)=O)NC(=O)[C@H](CC(C)C)NC(=O)[C@@H](NC(=O)[C@H](Cc1c[nH]c2ccccc12)NC(=O)[C@H](CCC(=O)O)NC(=O)[C@H](CCCCN)NC(=O)[C@H](CC(=O)O)NC(C)=O)[C@@H](C)CC)[C@@H](C)CC)[C@@H](C)CC)C(C)C)C(=O)N[C@@H](Cc1ccc(O)cc1)C(=O)N[C@@H](CCC(=O)O)C(=O)N[C@@H](Cc1ccccc1)C(=O)N[C@@H](CCSC)C(=O)N[C@@H](CCCCN)C(=O)N[C@@H](CCCCN)C(=O)N[C@@H](CC(=O)O)C(=O)N[C@H]1CSSC[C@@H](C(=O)N[C@H](C(=O)O)[C@@H](C)O)NC(=O)[C@H](Cc2c[nH]c3ccccc23)NC(=O)[C@H](C(C)C)NC(=O)[C@H](CC(C)C)NC(=O)[C@H](CCC(=O)O)NC(=O)CNC(=O)[C@H](CC(C)C)NC(=O)[C@H](Cc2c[nH]cn2)NC(=O)[C@H](Cc2c[nH]c3ccccc23)NC(=O)[C@H](C)NC1=O` [Compound 114] gave a half-maximal inhibitory concentration (IC50) under setting [1] of 40.7 nM.
Regarding `CC[C@H](C)[C@H](NC(=O)[C@H](CCCCN)NC(=O)[C@H](CCC(N)=O)NC(C)=O)C(=O)N[C@@H](Cc1ccc(O)cc1)C(=O)N[C@@H](CCC(=O)O)C(=O)N[C@H](C(=O)N[C@H]1CSSC[C@@H](C(=O)N[C@@H](CO)C(=O)N[C@@H](CC(=O)O)C(=O)N[C@@H](CC(C)C)C(=O)N[C@H](C(=O)N[C@@H](Cc2ccc(O)cc2)C(=O)N[C@@H](CCC(=O)O)C(=O)N[C@@H](Cc2ccccc2)C(=O)N[C@@H](CCSC)C(=O)N[C@@H](CCCCN)C(=O)N[C@@H](CCCCN)C(=O)NCC(=O)O)[C@@H](C)CC)NC(=O)[C@H](CCCNC(=N)N)NC(=O)[C@H](CCSC)NC(=O)[C@H](CO)NC(=O)[C@H](C)NC(=O)[C@H](CCC(=O)O)NC(=O)[C@H](C)NC(=O)[C@H](Cc2cnc[nH]2)NC(=O)CNC(=O)[C@H](CC(C)C)NC(=O)[C@H](CCC(=O)O)NC(=O)[C@H](CC(=O)O)NC(=O)[C@H](CC(C)C)NC(=O)[C@H](CC(C)C)NC(=O)[C@H](CCCNC(=N)N)NC1=O)[C@@H](C)CC` [Compound 132] (Ac-QKIYEICRLLDELGHAEASMRCSDLIYEFMKKG-OH; disulfide 7-22), the IC50 (read-out: IC50 Wild Type, Wild Type Spike) came to 5830 nM.
In turn, `CC[C@H](C)[C@H](NC(=O)[C@H](CCCCN)NC(=O)[C@H](CCC(N)=O)NC(C)=O)C(=O)N[C@@H](Cc1ccc(O)cc1)C(=O)N[C@@H](CCC(=O)O)C(=O)N[C@H](C(=O)N[C@H]1CSSC[C@@H](C(=O)N[C@@H](CO)C(=O)N[C@@H](CC(=O)O)C(=O)N[C@@H](CC(C)C)C(=O)N[C@H](C(=O)N[C@@H](Cc2ccc(O)cc2)C(=O)N[C@@H](CCC(=O)O)C(=O)N[C@@H](Cc2ccccc2)C(=O)N[C@@H](CCSC)C(=O)N[C@@H](CCCCN)C(=O)N[C@@H](CCCCN)C(=O)NCC(=O)O)[C@@H](C)CC)NC(=O)[C@H](CCCNC(=N)N)NC(=O)[C@H](CCSC)NC(=O)[C@H](CO)NC(=O)[C@H](C)NC(=O)[C@H](CCC(=O)O)NC(=O)[C@H](C)NC(=O)[C@H](Cc2cnc[nH]2)NC(=O)CNC(=O)[C@H](CC(C)C)NC(=O)[C@H](CCC(=O)O)NC(=O)[C@H](CC(=O)O)NC(=O)[C@H](CC(C)C)NC(=O)[C@H](CC(C)C)NC(=O)[C@H](CCCNC(=N)N)NC1=O)[C@@H](C)CC` [Compound 133] (Ac-QKIYEICRLLDELGHAEASMRCSDLIYEFMKKG-OH; disulfide 7-22) showed a half-inhibitory concentration (IC50) under setting [1] of 1530 nM.
The molecule `CC[C@H](C)C(N)C(=O)N[C@@H](CC(C)C)C(=O)N[C@@H](CCC(N)=O)C(=O)N[C@@H](CCCCN)C(=O)N[C@H](C(=O)N[C@@H](Cc1ccc(O)cc1)C(=O)N[C@@H](CCC(=O)O)C(=O)N[C@H](C(=O)N[C@H]1CSSC[C@@H](C(=O)N[C@@H](CO)C(=O)N[C@@H](CC(=O)O)C(=O)N[C@@H](CC(C)C)C(=O)N[C@H](C(=O)N[C@@H](Cc2ccc(O)cc2)C(=O)N[C@@H](CCC(=O)O)C(=O)N[C@@H](Cc2ccccc2)C(=O)N[C@@H](CCSC)C(=O)N[C@@H](CCCCN)C(=O)N[C@@H](CCCCN)C(=O)NCC(=O)O)[C@@H](C)CC)NC(=O)[C@H](CCCNC(=N)N)NC(=O)[C@H](CCSC)NC(=O)[C@H](CO)NC(=O)[C@H](C)NC(=O)[C@H](CCC(=O)O)NC(=O)[C@H](C)NC(=O)[C@H](Cc2cnc[nH]2)NC(=O)CNC(=O)[C@H](CC(C)C)NC(=O)[C@H](CCC(=O)O)NC(=O)[C@H](CC(=O)O)NC(=O)[C@H](CC(C)C)NC(=O)[C@H](CC(C)C)NC(=O)[C@H](CCCNC(=N)N)NC1=O)[C@@H](C)CC)[C@@H](C)CC` (some centres unmarked) [Compound 134] (H-[ξIle]LQKIYEICRLLDELGHAEASMRCSDLIYEFMKKG-OH; disulfide 9-24) registered an IC50 under setting [1] of 12.2 nM.
Still for that read-out and setting: under `CC[C@H](C)[C@H](NC(C)=O)C(=O)N[C@@H](CC(C)C)C(=O)N[C@@H](CCC(N)=O)C(=O)N[C@@H](CCCCN)C(=O)N[C@H](C(=O)N[C@@H](Cc1ccc(O)cc1)C(=O)N[C@@H](CCC(=O)O)C(=O)N[C@H](C(=O)N[C@H]1CSSC[C@@H](C(=O)N[C@@H](CO)C(=O)N[C@@H](CC(=O)O)C(=O)N[C@@H](CC(C)C)C(=O)N[C@H](C(=O)N[C@@H](Cc2ccc(O)cc2)C(=O)N[C@@H](CCC(=O)O)C(=O)N[C@@H](Cc2ccccc2)C(=O)N[C@@H](CCSC)C(=O)N[C@@H](CCCCN)C(=O)N[C@@H](CCCCN)C(=O)NCC(=O)O)[C@@H](C)CC)NC(=O)[C@H](CCCNC(=N)N)NC(=O)[C@H](CCSC)NC(=O)[C@H](CO)NC(=O)[C@H](C)NC(=O)[C@H](CCC(=O)O)NC(=O)[C@H](C)NC(=O)[C@H](Cc2cnc[nH]2)NC(=O)CNC(=O)[C@H](CC(C)C)NC(=O)[C@H](CCC(=O)O)NC(=O)[C@H](CC(=O)O)NC(=O)[C@H](CC(C)C)NC(=O)[C@H](CC(C)C)NC(=O)[C@H](CCCNC(=N)N)NC1=O)[C@@H](C)CC)[C@@H](C)CC` [Compound 135] (Ac-ILQKIYEICRLLDELGHAEASMRCSDLIYEFMKKG-OH; disulfide 9-24) stands 12.2 nM; under `CC[C@H](C)[C@H](NC(=O)[C@H](CC(C)C)NC(=O)[C@H](CC(=O)O)NC(=O)[C@H](CO)NC(=O)[C@@H]1CSSC[C@H](NC(=O)[C@@H](NC(=O)[C@H](CCC(=O)O)NC(=O)[C@H](Cc2ccc(O)cc2)NC(=O)[C@@H](NC(=O)[C@H](CCCCN)NC(=O)[C@H](CCC(N)=O)NC(=O)[C@H](CC(C)C)NC(=O)[C@@H](NC(=O)[C@H](Cc2c[nH]c3ccccc23)NC(=O)[C@H](CCC(=O)O)NC(=O)[C@H](CCCCN)NC(=O)[C@@H](N)CC(=O)O)[C@@H](C)CC)[C@@H](C)CC)[C@@H](C)CC)C(=O)N[C@@H](CCCNC(=N)N)C(=O)N[C@@H](CC(C)C)C(=O)N[C@@H](CC(C)C)C(=O)N[C@@H](CC(=O)O)C(=O)N[C@@H](CCC(=O)O)C(=O)N[C@@H](CC(C)C)C(=O)NCC(=O)N[C@@H](Cc2cnc[nH]2)C(=O)N[C@@H](C)C(=O)N[C@@H](CCC(=O)O)C(=O)N[C@@H](C)C(=O)N[C@@H](CO)C(=O)N[C@@H](CCSC)C(=O)N[C@@H](CCCNC(=N)N)C(=O)N1)C(=O)N[C@@H](Cc1ccc(O)cc1)C(=O)N[C@@H](CCC(=O)O)C(=O)N[C@@H](Cc1ccccc1)C(=O)N[C@@H](CCSC)C(=O)N[C@@H](CCCCN)C(=O)N[C@@H](CCCCN)C(=O)NCC(=O)O` [Compound 136] (H-DKEWILQKIYEICRLLDELGHAEASMRCSDLIYEFMKKG-OH; disulfide 13-28), 2.53 nM.
Still for that read-out and setting: under `CC[C@H](C)[C@H](NC(=O)[C@H](CC(C)C)NC(=O)[C@H](CC(=O)O)NC(=O)[C@H](CO)NC(=O)[C@@H]1CSSC[C@H](NC(=O)[C@@H](NC(=O)[C@H](CCC(=O)O)NC(=O)[C@H](Cc2ccc(O)cc2)NC(=O)[C@@H](NC(=O)[C@H](CCCCN)NC(=O)[C@H](CCC(N)=O)NC(=O)[C@H](CC(C)C)NC(=O)[C@@H](NC(=O)[C@H](Cc2c[nH]c3ccccc23)NC(=O)[C@H](CCC(=O)O)NC(=O)[C@H](CCCCN)NC(=O)[C@H](CC(=O)O)NC(C)=O)[C@@H](C)CC)[C@@H](C)CC)[C@@H](C)CC)C(=O)N[C@@H](CCCNC(=N)N)C(=O)N[C@@H](CC(C)C)C(=O)N[C@@H](CC(C)C)C(=O)N[C@@H](CC(=O)O)C(=O)N[C@@H](CCC(=O)O)C(=O)N[C@@H](CC(C)C)C(=O)NCC(=O)N[C@@H](Cc2cnc[nH]2)C(=O)N[C@@H](C)C(=O)N[C@@H](CCC(=O)O)C(=O)N[C@@H](C)C(=O)N[C@@H](CO)C(=O)N[C@@H](CCSC)C(=O)N[C@@H](CCCNC(=N)N)C(=O)N1)C(=O)N[C@@H](Cc1ccc(O)cc1)C(=O)N[C@@H](CCC(=O)O)C(=O)N[C@@H](Cc1ccccc1)C(=O)N[C@@H](CCSC)C(=O)N[C@@H](CCCCN)C(=O)N[C@@H](CCCCN)C(=O)NCC(=O)O` [Compound 137] (Ac-DKEWILQKIYEICRLLDELGHAEASMRCSDLIYEFMKKG-OH; disulfide 13-28) stands 2.91 nM.
